Reference: PubChem BioAssay AID1745844 (Carcinogenic Potency Database (CPDB), 2022)
Values joined by “and” are separate entries in the source; they are usually repeats but may differ in a detail not shown here. Equal entries are not always repeated. Active and inactive are the calls of the source. No rule for the calls is given here.

System: rodent lifetime carcinogenesis bioassay, tumor incidence TD50
Test: chronic cancer bioassays in animals – CPDB, compiled studies (AID 1745844)

`[O-][Br+2]([O-])O` gave a TD50 (hamster, strain Syrian Golden, males, in drinking water, site: kidney, lesion: renal-cell tumor, dosed 89 weeks, study length 89 weeks) of 533 mg/kg/day, a TD50 (mouse, strain B6C3F1, females, in drinking water, site: any site (literature study), lesion: several types, types named in the paper, dosed 78 weeks, study length 104 weeks) of 477 mg/kg/day and a TD50 (mouse, strain B6C3F1, females, in drinking water, site: liver, lesion: adenoma, dosed 78 weeks, study length 104 weeks) of 1180 mg/kg/day. It also gave a TD50 (mouse, strain B6C3F1, females, in drinking water, site: liver, lesion: several types, types named in the paper, dosed 78 weeks, study length 104 weeks) of 1710 mg/kg/day, a TD50 (mouse, strain B6C3F1, females, in drinking water, site: lung, lesion: adenoma, dosed 78 weeks, study length 104 weeks) of 2030 mg/kg/day and a TD50 (mouse, strain B6C3F1, females, in drinking water, site: lung, lesion: several types, types named in the paper, dosed 78 weeks, study length 104 weeks) of 1050 mg/kg/day. For the same compound, the TD50 (mouse, strain B6C3F1, males, in drinking water, site: kidney, lesion: renal-cell carcinoma, dosed 100 weeks, study length 100 weeks) was 92.5 mg/kg/day, the TD50 (mouse, strain B6C3F1, males, in drinking water, site: kidney, lesion: several types, types named in the paper, dosed 100 weeks, study length 100 weeks) was 53.8 mg/kg/day and the TD50 (mouse, strain Theiller's Original, females, in feed, site: liver, lesion: hemangioma, dosed 80 weeks, study length 80 weeks) was 347 mg/kg/day (inactive). For the same compound, the carcinogen call (mouse, strain Theiller's Original, males, in feed, site: any site (literature study), lesion: malignant tumor, dosed 80 weeks, study length 80 weeks) was “negative (inactive)”, the carcinogen call (mouse, strain Theiller's Original, males, in feed, site: liver, lesion: one or several types, types not named, dosed 80 weeks, study length 80 weeks) was “negative (inactive)” and the TD50 (rat, strain F344/DuCrj, males, in drinking water, site: kidney, lesion: adenocarcinoma, dosed 26 weeks, study length 104 weeks) was 79.2 mg/kg/day. The TD50 (rat, strain F344/DuCrj, males, in drinking water, site: kidney, lesion: adenocarcinoma, dosed 39 weeks, study length 104 weeks) was 16.9 mg/kg/day, the TD50 (rat, strain F344/DuCrj, males, in drinking water, site: kidney, lesion: adenocarcinoma, dosed 52 weeks, study length 104 weeks) was 35.5 mg/kg/day and the TD50 (rat, strain F344/DuCrj, males, in drinking water, site: kidney, lesion: adenocarcinoma, dosed 104 weeks, study length 104 weeks) was 105 mg/kg/day and 224 mg/kg/day. For the same compound, the TD50 (rat, strain F344/DuCrj, males, in drinking water, site: kidney, lesion: adenoma, dosed 26 weeks, study length 104 weeks) was 6.67 mg/kg/day, the TD50 (rat, strain F344/DuCrj, males, in drinking water, site: kidney, lesion: adenoma, dosed 39 weeks, study length 104 weeks) was 5.57 mg/kg/day and the TD50 (rat, strain F344/DuCrj, males, in drinking water, site: kidney, lesion: adenoma, dosed 52 weeks, study length 52 weeks) was 4.98 mg/kg/day. For the same compound, the TD50 (rat, strain F344/DuCrj, males, in drinking water, site: kidney, lesion: adenoma, dosed 52 weeks, study length 104 weeks) was 10.1 mg/kg/day, the TD50 (rat, strain F344/DuCrj, males, in drinking water, site: kidney, lesion: adenoma, dosed 104 weeks, study length 104 weeks) was 48 mg/kg/day and 35.7 mg/kg/day and the TD50 (rat, strain F344/DuCrj, males, in drinking water, site: kidney, lesion: renal-cell tumor, dosed 104 weeks, study length 104 weeks) was 28.9 mg/kg/day. It also gave a TD50 (rat, strain F344/DuCrj, males, in drinking water, site: kidney, lesion: several types, types named in the paper, dosed 26 weeks, study length 104 weeks) of 6.67 mg/kg/day, a TD50 (rat, strain F344/DuCrj, males, in drinking water, site: kidney, lesion: several types, types named in the paper, dosed 39 weeks, study length 104 weeks) of 4.81 mg/kg/day and a TD50 (rat, strain F344/DuCrj, males, in drinking water, site: kidney, lesion: several types, types named in the paper, dosed 52 weeks, study length 104 weeks) of 8.32 mg/kg/day. The TD50 (rat, strain F344/DuCrj, males, in drinking water, site: kidney, lesion: several types, types named in the paper, dosed 104 weeks, study length 104 weeks) was 28.7 mg/kg/day, the TD50 (rat, strain F344/DuCrj, males, in drinking water, site: liver, lesion: neoplastic nodule, dosed 104 weeks, study length 104 weeks) was 53.2 mg/kg/day and the TD50 (rat, strain F344/DuCrj, males, in drinking water, site: peritoneum, lesion: mesothelioma, dosed 26 weeks, study length 104 weeks) was 7.84 mg/kg/day. The TD50 (rat, strain F344/DuCrj, males, in drinking water, site: peritoneum, lesion: mesothelioma, dosed 39 weeks, study length 104 weeks) was 14 mg/kg/day, the TD50 (rat, strain F344/DuCrj, males, in drinking water, site: peritoneum, lesion: mesothelioma, dosed 52 weeks, study length 52 weeks) was 25.6 mg/kg/day and the TD50 (rat, strain F344/DuCrj, males, in drinking water, site: peritoneum, lesion: mesothelioma, dosed 52 weeks, study length 104 weeks) was 19.4 mg/kg/day. The TD50 (rat, strain F344/DuCrj, males, in drinking water, site: peritoneum, lesion: mesothelioma, dosed 104 weeks, study length 104 weeks) was 12.4 mg/kg/day and 19.5 mg/kg/day, the TD50 (rat, strain F344/DuCrj, males, in drinking water, site: thyroid gland, lesion: follicular-cell adenoma, dosed 104 weeks, study length 104 weeks) was 59.5 mg/kg/day and the TD50 (rat, strain F344/DuCrj, males, in drinking water, site: thyroid gland, lesion: follicular-cell tumor, dosed 26 weeks, study length 104 weeks) was 11.3 mg/kg/day. For the same compound, the TD50 (rat, strain F344/DuCrj, males, in drinking water, site: thyroid gland, lesion: follicular-cell tumor, dosed 52 weeks, study length 104 weeks) was 19.4 mg/kg/day, the TD50 (rat, strain F344/DuCrj, males, in drinking water, site: thyroid gland, lesion: follicular-cell tumor, dosed 104 weeks, study length 104 weeks) was 39.8 mg/kg/day and 54.7 mg/kg/day and the TD50 (rat, strain Fischer 344, females, in drinking water, site: any site (literature study), lesion: several types, types named in the paper, dosed 110 weeks, study length 111 weeks) was 9.05 mg/kg/day. The TD50 (rat, strain Fischer 344, females, in drinking water, site: kidney, lesion: adenocarcinoma, dosed 110 weeks, study length 111 weeks) was 16.4 mg/kg/day, the TD50 (rat, strain Fischer 344, females, in drinking water, site: kidney, lesion: adenoma, dosed 110 weeks, study length 111 weeks) was 87.5 mg/kg/day and the TD50 (rat, strain Fischer 344, females, in drinking water, site: kidney, lesion: several types, types named in the paper, dosed 110 weeks, study length 111 weeks) was 13.7 mg/kg/day. For the same compound, the TD50 (rat, strain Fischer 344, females, in drinking water, site: thyroid gland, lesion: several types, types named in the paper, dosed 110 weeks, study length 111 weeks) was 97.6 mg/kg/day, the TD50 (rat, strain Fischer 344, males, in drinking water, site: kidney, lesion: adenocarcinoma, dosed 110 weeks, study length 111 weeks) was 12.6 mg/kg/day and the TD50 (rat, strain Fischer 344, males, in drinking water, site: kidney, lesion: adenoma, dosed 110 weeks, study length 111 weeks) was 46.2 mg/kg/day. It also gave a TD50 (rat, strain Fischer 344, males, in drinking water, site: kidney, lesion: renal-cell adenoma, dosed 52 weeks, study length 52 weeks) of 16.7 mg/kg/day, a TD50 (rat, strain Fischer 344, males, in drinking water, site: kidney, lesion: renal-cell adenoma, dosed 77 weeks, study length 77 weeks) of 15.3 mg/kg/day and a TD50 (rat, strain Fischer 344, males, in drinking water, site: kidney, lesion: renal-cell adenoma, dosed 100 weeks, study length 100 weeks) of 31.1 mg/kg/day. It also gave a TD50 (rat, strain Fischer 344, males, in drinking water, site: kidney, lesion: renal-cell carcinoma, dosed 100 weeks, study length 100 weeks) of 62.2 mg/kg/day, a TD50 (rat, strain Fischer 344, males, in drinking water, site: kidney, lesion: several types, types named in the paper, dosed 100 weeks, study length 100 weeks) of 20.8 mg/kg/day and a TD50 (rat, strain Fischer 344, males, in drinking water, site: kidney, lesion: several types, types named in the paper, dosed 110 weeks, study length 111 weeks) of 9.62 mg/kg/day. For the same compound, the TD50 (rat, strain Fischer 344, males, in drinking water, site: liver, lesion: several types, types named in the paper, dosed 110 weeks, study length 111 weeks) was 164 mg/kg/day, the TD50 (rat, strain Fischer 344, males, in drinking water, site: peritoneum, lesion: mesothelioma, dosed 110 weeks, study length 111 weeks) was 25.3 mg/kg/day and the TD50 (rat, strain Fischer 344, males, in drinking water, site: thyroid gland, lesion: follicular-cell adenoma, dosed 100 weeks, study length 100 weeks) was 35.2 mg/kg/day. For the same compound, the TD50 (rat, strain Fischer 344, males, in drinking water, site: thyroid gland, lesion: follicular-cell carcinoma, dosed 77 weeks, study length 77 weeks) was 34.8 mg/kg/day, the TD50 (rat, strain Fischer 344, males, in drinking water, site: thyroid gland, lesion: follicular-cell carcinoma, dosed 100 weeks, study length 100 weeks) was 62.9 mg/kg/day and the TD50 (rat, strain Fischer 344, males, in drinking water, site: thyroid gland, lesion: several types, types named in the paper, dosed 77 weeks, study length 77 weeks) was 21.8 mg/kg/day. The TD50 (rat, strain Fischer 344, males, in drinking water, site: thyroid gland, lesion: several types, types named in the paper, dosed 100 weeks, study length 100 weeks) was 22.2 mg/kg/day, the TD50 (rat, strain Fischer 344, males, in drinking water, site: tunica vaginalis, lesion: mesothelioma, dosed 52 weeks, study length 52 weeks) was 36.1 mg/kg/day and the TD50 (rat, strain Fischer 344, males, in drinking water, site: tunica vaginalis, lesion: mesothelioma, dosed 77 weeks, study length 77 weeks) was 15.3 mg/kg/day. The TD50 (rat, strain Fischer 344, males, in drinking water, site: tunica vaginalis, lesion: mesothelioma, dosed 100 weeks, study length 100 weeks) was 11.1 mg/kg/day.

Compound `O=C(Nc1ccc2c(c1)Cc1ccccc1-2)C(F)(F)F` has a TD50 (rat, strain Buffalo, females, in feed, site: ear duct, lesion: squamous-cell carcinoma, dosed 53 weeks, study length 54 weeks) of 4.94 mg/kg/day, a TD50 (rat, strain Buffalo, females, in feed, site: liver, lesion: hepatoma, dosed 53 weeks, study length 54 weeks) of 1.9 mg/kg/day and a TD50 (rat, strain Buffalo, females, in feed, site: mammary gland, lesion: adenocarcinoma, dosed 53 weeks, study length 54 weeks) of 1.62 mg/kg/day.
